Measured values: patent US8796327B2, “Method for inhibiting production of cytokines of T helper cell type II and/or inhibiting production of chemokines using brazilin” (China Medical University, priority 2010, dated 2014)

Key:
Assay type in all cases: cell-based, mouse
EL-4 T lymphoma cells = test: Trypan blue exclusion assay, cell viability; conditions: for Cell viability (%): EL-4 cells
Protocol: (§1) First, in an incubator containing 5 vol % of CO2 at 37° C., EL-4 mouse T lymphoma cells (commercially available from ATCC, Manassas, Va., America) were cultured in the DMEM culture medium (containing 10 wt % of thermally deactivated FBS), and were sub-cultured at a ratio of 1:3.
(§2) Then, at a density of 5×10^5 counts/ml, the T lymphoma cells were bred in a six-well culture dish, and at the 0th minute, brazilin of different concentrations (0.3, 1, 3, 10, or 30 micromole (μM)) was added into the cell culture solution at an amount of 1 μl/ml-cell culture solution. Then, the cells were put into the incubator to be cultured therein. […] During the process of cell culture, the trypan blue exclusion assay was employed to observe effect of the brazilin on the cell viability, results of which are shown in Table 1 and FIG. 1.

IL-5 = test: ELISA of IL-5 in supernatant of EL-4 T lymphoma cells; conditions: EL-4 cells
Protocol: as §1, §2
At 4° C., the T lymphoma cells obtained from Experiment A were centrifugally rotated at a rotational speed of 1000 rpm and at 4° C. for 5 minutes, and the supernatant was collected and analyzed for cytokines.
An enzyme-linked immunosorbent assay (ELISA) kit (commercially available from R&D Systems, Inc., America) was used to analyze the expression of IFN-γ, IL-4, IL-5, and eotaxin cytokines in the aforesaid supernatant, results of which are shown in Table 2, Table 3, FIG. 2, and FIG. 3.
In Experiment B and the following Experiment C, all experimental data are presented in form of “mean±standard deviation”, and statistical discrepancy was analyzed by means of the One-way ANOVA and Newman-keuls post-hoc tests, in which it is considered that there is statistical discrepancy if p<0.05.

IL-4 = test: ELISA of IL-4 in supernatant of EL-4 T lymphoma cells; conditions: EL-4 cells, no PMA + cAMP
c-maf mRNA = test: Real-time PCR of c-maf mRNA in EL-4 T lymphoma cells; conditions: for Expression level of c-maf mRNA: PMA + cAMP stimulated EL-4 cells, corrected to HPRT
Protocol: Then, at a density of 5×10^5 counts/ml, the T lymphoma cells were bred in a six-well culture dish, and at the 0th minute, brazilin of different concentrations (0.3, 1, 3, 10, or 30 micromole (μM)) was added into the cell culture solution at an amount of 1 μl/ml-cell culture solution. Then, the cells were put into the incubator to be cultured therein. 30 minutes later, at an amount of 1 μl/ml-cell culture solution, 5 μg/ml PMA and cAMP at a 250 mmol concentration were added to the cell culture solution to stimulate the expression of IL-4 and IL-5 of the T lymphoma cells. During the process of cell culture, the trypan blue exclusion assay was employed to observe effect of the brazilin on the cell viability, results of which are shown in Table 1 and FIG. 1.
Expression of mRNA of IL-4, IL-5, GATA-3, c-maf, and T-bet were analyzed in a quantitative way through real-time polymerase chain reaction (PCR) by extracting RNA in the cells obtained in Experiment A (using an RNA purifying kit), converting the RNA into cDNA through reverse transcription, and using an ABI PRISM 7700 sequence detector (Applied Biosystems, Foster City, Calif., America) to analyze the gene expression of mRNA. The PCR was carried out under the following conditions: 50° C., 2 minutes; 95° C., 10 minutes; 60° C., 1 minute; then repeating this cycle forty times. A threshold cycle (or referred to as Ct) was used to represent the expression level of each gene, and an expression level of hypoxanthine-guanine phosphoribosy transferase (HPRT) genes of the endogenous control group was used for correction of the expression level of mRNA.

Oc1ccc2c(c1)OC[C@]1(O)Cc3cc(O)c(O)cc3[C@H]21 [brazilin]
effect on the growth of EL-4 T lymphoma cells (EL-4 T lymphoma cells; 0.3-30 μM, result in words): no effect
cytotoxicity (EL-4 T lymphoma cells; EL-4 T lymphoma cells, 0.3-30 μM, result in words): no cytotoxicity
Cell viability (%) (EL-4 T lymphoma cells; brazilin 0.3 μM, no PMA + cAMP): 102.8 ± 6.895%
Cell viability (%) (EL-4 T lymphoma cells; brazilin 0.3 μM, with PMA + cAMP): 115.9 ± 6.968%
Cell viability (%) (EL-4 T lymphoma cells; brazilin 1 μM, no PMA + cAMP): 106.5 ± 1.190%
Cell viability (%) (EL-4 T lymphoma cells; brazilin 1 μM, with PMA + cAMP): 107.4 ± 3.829%
Cell viability (%) (EL-4 T lymphoma cells; brazilin 3 μM, no PMA + cAMP): 101.5 ± 4.226%
Cell viability (%) (EL-4 T lymphoma cells; brazilin 3 μM, with PMA + cAMP): 109.0 ± 3.764%
Cell viability (%) (EL-4 T lymphoma cells; brazilin 10 μM, no PMA + cAMP): 111.5 ± 5.126%
Cell viability (%) (EL-4 T lymphoma cells; brazilin 10 μM, with PMA + cAMP): 100.8 ± 3.257%
Cell viability (%) (EL-4 T lymphoma cells; brazilin 30 μM, no PMA + cAMP): 98.17 ± 8.439%
Cell viability (%) (EL-4 T lymphoma cells; brazilin 30 μM, with PMA + cAMP): 104.7 ± 2.495%
expression of protein of IL-5 cytokine (IL-5; result in words): inhibited
Concentration of IL-5 (pico-gram/ml) (IL-5; brazilin 0.3 μM + PMA + cAMP): 2480 ± 515.9 pico-gram/ml
Concentration of IL-5 (pico-gram/ml) (IL-5; brazilin 0.3 μM, no PMA + cAMP): 5.925 ± 3.462 pico-gram/ml
Concentration of IL-5 (pico-gram/ml) (IL-5; brazilin 1 μM + PMA + cAMP): 2580 ± 402.8 pico-gram/ml
Concentration of IL-5 (pico-gram/ml) (IL-5; brazilin 1 μM, no PMA + cAMP): 0.2422 ± 0.2422 pico-gram/ml
Concentration of IL-5 (pico-gram/ml) (IL-5; brazilin 3 μM + PMA + cAMP): 2345 ± 392.6 pico-gram/ml
Concentration of IL-5 (pico-gram/ml) (IL-5; brazilin 3 μM, no PMA + cAMP): 0.2422 ± 0.2422 pico-gram/ml
Concentration of IL-5 (pico-gram/ml) (IL-5; brazilin 10 μM + PMA + cAMP): 1809 ± 337.9 pico-gram/ml
Concentration of IL-5 (pico-gram/ml) (IL-5; brazilin 10 μM, no PMA + cAMP): 1.474 ± 0.9891 pico-gram/ml
Concentration of IL-5 (pico-gram/ml) (IL-5; brazilin 30 μM + PMA + cAMP): 1292 ± 531.6 pico-gram/ml
Concentration of IL-5 (pico-gram/ml) (IL-5; brazilin 30 μM, no PMA + cAMP): 0.0 ± 0.0 pico-gram/ml
Concentration of IL-4 (pico-gram/ml) (IL-4; brazilin 0.3 μM): 2.569 ± 0.1160 pico-gram/ml
Concentration of IL-4 (pico-gram/ml) (IL-4; brazilin 1 μM): 5.353 ± 1.276 pico-gram/ml
Concentration of IL-4 (pico-gram/ml) (IL-4; brazilin 3 μM): 5.469 ± 0.1160 pico-gram/ml
Concentration of IL-4 (pico-gram/ml) (IL-4; brazilin 10 μM): 7.093 ± 0.3480 pico-gram/ml
Concentration of IL-4 (pico-gram/ml) (IL-4; brazilin 30 μM): 4.715 ± 0.9859 pico-gram/ml
expression of mRNA of transcription factor c-maf (c-maf mRNA; EL-4 cells, result in words): inhibited
Expression level of c-maf mRNA (c-maf mRNA; brazilin 0.3 μM): 3.388 ± 0.2410
Expression level of c-maf mRNA (c-maf mRNA; brazilin 1 μM): 3.318 ± 0.1177
Expression level of c-maf mRNA (c-maf mRNA; brazilin 3 μM): 2.846 ± 0.2632
Expression level of c-maf mRNA (c-maf mRNA; brazilin 10 μM): 1.826 ± 0.6278
Expression level of c-maf mRNA (c-maf mRNA; brazilin 30 μM): 1.302 ± 0.1868
